Test results reported in patent US6177474A, “Polyhydroxyphenol derivatives and preventive and therapeutic agents for bone and cartilage diseases containing the same” (Hoechst Marion Roussel, priority 1996, dated 2001).

Test system: bone cells containing osteoclast cells
Test: Pit formation assay: inhibition of osteolysis (absorption pits on ivory slices)
Type: cell-based, ICR mice
Conditions: for inhibition at 10 µM: Mus musculus, Osteoclast, read-out: Ratio of inhibition (%); for inhibition at 10 µM / Ratio of inhibition (%): 0% = pits with rPTH (1×10^-8 M) without medicine, 100% = no absorption pit; for Ratio of inhibition (%): 4320 min
Protocol: ICR mice 11-12 days old (purchased from Charles River Japan) were euthanized by anesthesia with ether and immediately immersed in 70% ethanol for disinfection. By the use of ophthalmologist scissors and pincers sterilized in advance with ethanol, femur and tibia were excised from the sacrificed mice and chopped into small pieces in an α-MEM culture medium (purchased from Flow Laboratories Corp.). containing 5% FBS (purchased from Irvine Scientific Corp.), 100 U/ml penicillin and 100 μg/ml streptomycin. The supernatant formed consequently was recovered by pipeting, cleaned with the culture broth, and suspended in a 5% FBS α-MEM culture broth to obtain bone cells containing osteoclast cells. The supernatant of a bone cell-floating liquid formed after 3 minutes' standing of the bone cells at rest was recovered and passed through a mesh (cell strainer, 70 μm, purchased from Falcon Corp.). The filtrate was adjusted to a cell concentration of 1×10^7 /ml and used for the pit formation assay.
An ivory piece was cut into slices, 150 μm in thickness, by the use of a precision low-speed cutting machine (purchased from Buehler Corp.). Cylindrical holes, 6 mm in diameter, were perforated in the slices by the use of a one-hole punch. The ivory slices were immersed in 70% ethanol and subjected therein to an ultrasonic cleaning treatment twice each for five minutes and washed three times with a sterilized PBS and twice with the culture medium. The ivory slices were set in place on a 96-hole culture plate (purchased from Falcon Corp.). The perforated ivory slices on the culture plate, with a culture broth containing a given compound of the present invention prepared in a concentration of 2×10^-5 M added in a fixed volume of 100 μl (final medicine concentration 1×10^-5 M) to each of the holes and a culture broth containing prepared bone cells in a concentration of 1×10^7 /ml placed in each of the holes, were cultured for three days in a 10% CO2 incubator at 37° C. After the culture, the ivory slices were placed in an aqueous 2 N sodium hydroxide and the cells on the slices were removed by the use of a rubber spatula. The ivory slices were washed with water and methanol. The absorption pits formed in the ivory slices were dyed with Coomassie Brilliant Blue and were counted under a microscope. Though the numbers of absorption pits were naturally found to disperse among test lots, depending on the ratios of varying specie s of cells in the bone cell suspensions and the lots of animals used, satisfactorily uniform test results were found in one and the same test lot. The ratio of inhibition of osteolysis was calculated on the 100% scale, in which 0% stands for the number of absorption pits found in the culture broth in the presence of rPTH (1×10^-8 M) and in the absence of a medicine and 100% for total absence of absorption pit.
The test described above was performed in a total of ten runs, Tests 1-10.
In the columns titled "Added medicine No." found in Table 2 and Table 3, the symbol (-) denotes a control involving no addition of medicine and the numerical No. denotes the No. of the compound mentioned above.

[1] = compound 10^-5 M, 3 days culture at 37° C., 10% CO2, control per test run given as (-)

Row | Compound | No. of absorption pits (Mean ± SD) (72 h, 10 µM) | inhibition at 10 µM (72 h, compound 10^-5 M) [%] | No. of absorption pits (Mean ± SD) [1] | Ratio of inhibition (%) (compound 10^-5 M, 10 µM)
1 | CC(C)=CCCC(C)=CCC1=C(O)C(CC=C(C)CCC=C(C)C)(CC=C(C)CCC=C(C)C)C(=O)C(C(=O)Cc2ccccc2)=C1O (stereo not shown) [Compound 44, 3,5-dihydroxy-6-(phenylacetyl)-2,2,4-tris(3,7-dimethyl-2,6-octadienyl)cyclohexa-3,5-dienone] | 7.7 ± 2.0 | 96.6 |  | 
2 | CC(C)=CCCC(C)=CCC1(CC=C(C)CCC=C(C)C)C(=O)C(C(=O)Cc2ccccc2)=C(O)C=C1O (stereo not shown) [Compound 45, 3,5-dihydroxy-6-(phenylacetyl)-2,2-bis(3,7-dimethyl-2,6-octadienyl)cyclohexa-3,5-dienone] | 8.2 ± 1.8 | 96.4 |  | 
3 | CC(C)=CCCC(C)=CCc1c(O)cc(O)c(C(=O)Cc2ccccc2)c1O [Compound 46, {3-(3,7-dimethyl-2,6-octadienyl)-2,4,6-trihydroxyphenyl} (phenylmethyl) ketone] | 125.3 ± 12.6 | 44.3 |  | 
4 | Cc1cc(O)cc(O)c1C(=O)CC(C)C [Compound 47, (2,4-dihydroxy-6-methylphenyl) (2-methylpropyl) ketone] | 179.8 ± 23.8 | 10.9 |  | 
5 | CC(C)=CCOc1cc(C)c(C(=O)CC(C)C)c(O)c1 [Compound 48, {2-hydroxy-6-methyl-4-(3-methyl-2-butenyloxy)phenyl} (2-methylpropyl) ketone] | 85.2 ± 7.5 | 57.8 |  | 
6 | CC(C)=CCc1c(O)cc(C)c(C(=O)CC(C)C)c1O [Compound 49, {2,4-dihydroxy-6-methyl-3-(3-methyl-2-butenyl)phenyl} (2-methylpropyl) ketone] | 44.3 ± 5.4 | 78 |  | 
7 | CC(C)=CCc1c(O)cc(O)c(C(=O)CC(C)C)c1C [Compound 50, {4,6-dihydroxy-2-methyl-3-(3-methyl-2-butenyl)phenyl} (3-methylpropyl) ketone] | 40.1 ± 7.0 | 80.1 |  | 
8 | CC(C)=CCOc1c(CC=C(C)C)c(C)c(C(=O)CC(C)C)c(O)c1CC=C(C)C [Compound 51, {3,5-bis(3-methyl-2-butenyl)-2-hydroxy-6-methyl-4-(3-methyl-2-butenyloxy)phenyl} (2-methylpropyl) ketone] | 102.7 ± 6.2 | 42.8 |  | 
9 | CC(C)CC(=O)c1ccc(O)cc1O [Compound 52, (2,4-dihydroxyphenyl)(2-methylpropyl) ketone] | 94.3 ± 13.8 | 44.9 |  | 
10 | CC(C)=CCOc1ccc(C(=O)CC(C)C)c(O)c1 [Compound 53, {2-hydroxy-4-(3-methyl-2-butenyloxy)phenyl} (2-methylpropyl) ketone] | 55.1 ± 11.1 | 67.8 |  | 
11 | CC(C)=CCc1c(O)ccc(C(=O)CC(C)C)c1O [Compound 54, (2,4-dihydroxy-3-(3-methyl-2-butenyl)phenyl) (2-methylpropyl) ketone] | 66.5 ± 9.7 | 61.2 |  | 
12 | CC(C)=CCc1cc(C(=O)CC(C)C)c(O)cc1O [Compound 55, {2,4-dihydroxy-5-(3-methyl-2-butenyl)phenyl} (2-methylpropyl)ketone] | 15.8 ± 3.3 | 90.8 |  | 
13 | (2,4,5-trihydroxyphenyl) (2-methylpropyl) ketonemono(3-methyl-2-butenyl) ether [Compound 28] |  |  | 61.3 ± 5.5 | 69.6
14 | {6-(3-methyl-2-butenyl)-2,4,5-trihydroxyphenyl} (2-methylpropyl) ketonemono(3-methyl-2-butenyl) ether [Compound 27] |  |  | 38.8 ± 6.6 | 80.8
